In data set [1] the test system is mouse model of HF (myocardial infarction, MI). Kind of data set: open field test and elevated plus maze (EPM) test. In kind it is in vivo. Conditions: MI mice, treated. The source says:
FIGS. 2A-2G illustrate a mouse model of heart failure (myocardial infarction) that is associated with cognitive dysfunction. […] One-way analysis of variance (ANOVA) was used to compare the difference between the six groups in FIGS. 2B, 2C, 2E and 2F. Tukey's test was used for multiple comparisons; two-way ANOVA was used in FIG. 2D. […] All statistical tests were two sided with the data derived from biologically independent samples.
Because of the complexity of the clinical manifestation of HF patients, the mouse model of HF (myocardial infarction, MI) was used with reduced ejection fraction to evaluate the mechanisms of CD. The open field test and elevated plus maze (EPM) test were used to evaluate the behavioral phenotypes, and spontaneous exploratory activity in the mice. In the open field test, mice were placed at the center of a chamber and allowed to explore for 6 min. […] In the EPM test, MI mice spent […] time in the open arms of the EPM (FIG. 2B) compared to SHAM (0.22±0.04 versus 0.14±0.02; P<0.05). […] As a control, the effects of a Rycal®, ARM036, was studied.

Data set [2] shares this test system. Kind of data set: novel object recognition test (hippocampal-dependent short-term memory). In kind it is in vivo. Conditions: MI mice, treated; MI 15%±4%, SHAM 48%±5%. The source says:
(§1) One-way analysis of variance (ANOVA) was used to compare the difference between the six groups in FIGS. 2B, 2C, 2E and 2F. Tukey's test was used for multiple comparisons; two-way ANOVA was used in FIG. 2D. […] All statistical tests were two sided with the data derived from biologically independent samples.
Next, a novel object recognition test was used to evaluate hippocampal-dependent short-term memory. (see Liu, X. et al. Role of leaky neuronal ryanodine receptors in stress-induced cognitive dysfunction. Cell 150, 1055-1067 (2012); and Bevins, R. A. & Besheer, J. Object recognition in rats and mice: a one-trial non-matching-to-sample learning task to study ‘recognition memory’. Nat. Protoc. 1, 1306-1311 (2006)).

The test system is the same in data set [3]. Kind of data set: MWM test (long-term spatial learning and memory) with probe trial. The class given is in vivo. Particulars: MI mice, treated; for latency to find and reach the hidden platform: day 4 training trials, MI 30±1 s, SHAM 21±2 s. As to the method: as §1
A MWM test was performed to assess hippocampal-dependent long-term spatial learning and memory.
A probe trial was performed on day 5 of the MWM test.

In data set [4] the test system is MI mice. The data set can be described thus: long-term potentiation (fEPSPs) in hippocampal slices. Conditions: slices from treated MI mice; MI decreased LTP versus SHAM. The class given is in vivo, mouse. The method, then: (§2) FIG. 4A is a schematic representation of a hippocampal brain slice for LTP experiments and the positioning of the stimulating and recording electrodes.
Field excitatory postsynaptic potentials (fEPSPs) were evaluated at the Schaffer collateral using a bipolar electrode placed at the CA3 and recording at the CA1 (FIG. 4A). […] Importantly, MI and treatment with the various compounds after MI had no effect on basal synaptic transmission determined by the input-output curves (I-O; P=0.5; FIG. 4D).

Data set [5] deals with MI mice. Kind of data set: hippocampal FDG metabolism by microPET. In kind it is in vivo, mouse. Conditions: treated MI mice; percentage of the FDG uptake in the SHAM mice (SHAM 100±3, MI 70±3).
Description: as §2
Thereafter, [^18F]fluorodeoxyglucose (FDG) with positron emission tomography (PET) was used to measure energy consumption in neurons, which reflects neuronal communication signals and the integrative local neuronal activity. Deteriorating brain glucose metabolism measured by FDG-PET has been used as a clinical marker for Alzheimer's disease diagnosis. Thus, hippocampal FDG metabolism was evaluated in the experimental groups (FIGS. 4E and 4F).

A further data set relates to adrenergic pathway. The data set can be described thus: hippocampal norepinephrine levels and PKA activity. In kind it is in vivo, mouse. Particulars: treated versus untreated MI mice. The method, then:
The hippocampal levels of norepinephrine and PKA activity were measured.

For another data set, the system named is TGF-β pathway. Kind of data set: immunoblots of TGF-β, phosphorylated SMAD3 and NOX2 binding to RyR2 in hippocampi. Conditions: hippocampi of treated MI mice. In kind it is in vivo, mouse. The source says: FIG. 12A includes immunoblots showing expressing levels of TGF-β, phosphorylated SMAD3, total SMAD3, and NOX2 binding to RyR2 in the hippocampi of controls (n=4) and HF patients (n=9). FIG. 12B includes bar graphs depicting the ratio of TGF-β expression normalized to GAPDH, phosphorylated SMAD3 to total SMAD3 and NOX2 binding to RyR2 (IP RyR2). The same quantity of proteins was loaded on two separate gels and blotted separately for SMAD3 and pSMAD3. Individual values are shown with mean±SEM (t-test * p<0.05, Controls vs. HF patients). […] FIG. 12D includes bar graphs depicting the ratio of TGF-β expression normalized to GAPDH, phosphorylated SMAD3 to total SMAD3 and NOX2 binding to RyR2 (IP RyR2). The same quantity of proteins was loaded on two separate gels and blotted separately for SMAD3 and pSMAD3. Individual values are shown with mean±SEM. […] All statistical tests were two-sided. Data are derived from biologically independent samples.
TGF-β has been implicated in CNS disorders including Alzheimer's disease.
On the technique in general: In western blotting, separated proteins are transferred to a membrane and probed.

Data set [6] can be described thus: blood-brain barrier crossing.
Data set [7] has as its target RyR2 (Homo sapiens, UniProt Q92736). Particulars: previously identified binding site; cited from earlier work.
For data set [8], the target named is RyR2 (Mus musculus, UniProt E9Q401). Kind of data set: caffeine-induced Ca2+ release in primary hippocampal neurons. In kind it is cell-based. Set-up: representative images of 14-d cultured hippocampal neurons stimulated with 10 mM caffeine; endogenous in cells; host or cells: primary hippocampal neurons, 14 d in culture. Conditions: 10 mM caffeine; hippocampal neurons treated with the adrenergic agonist alone. As to the method:
FIG. 5A presents representative images of 14-d cultured hippocampal neurons stimulated with 10 mM caffeine. For each condition, the Ca^2+ levels are shown at baseline, during stimulation and at recovery. […] Individual values are shown with the mean±s.e.m. […] Scale bar, 10 μm. A reduction in caffeine-induced Ca^2+ release indicates a Ca^2+ depleted ER due to persistent RyR2-mediated Ca^2+ leak. Data are derived from biologically independent samples. All statistical tests were two sided.
To determine whether the activation of the adrenergic pathway indeed causes neuronal RyR2-mediated ER Ca^2+ leak, caffeine (10 mM), a well characterized RyR agonist, was used to assess RyR2 function specifically in hippocampal neurons without interference of other cell types such as glial cells or astrocytes.

Sequence of RyR2 (Mus musculus, UniProt E9Q401) (E9Q401 whole entry): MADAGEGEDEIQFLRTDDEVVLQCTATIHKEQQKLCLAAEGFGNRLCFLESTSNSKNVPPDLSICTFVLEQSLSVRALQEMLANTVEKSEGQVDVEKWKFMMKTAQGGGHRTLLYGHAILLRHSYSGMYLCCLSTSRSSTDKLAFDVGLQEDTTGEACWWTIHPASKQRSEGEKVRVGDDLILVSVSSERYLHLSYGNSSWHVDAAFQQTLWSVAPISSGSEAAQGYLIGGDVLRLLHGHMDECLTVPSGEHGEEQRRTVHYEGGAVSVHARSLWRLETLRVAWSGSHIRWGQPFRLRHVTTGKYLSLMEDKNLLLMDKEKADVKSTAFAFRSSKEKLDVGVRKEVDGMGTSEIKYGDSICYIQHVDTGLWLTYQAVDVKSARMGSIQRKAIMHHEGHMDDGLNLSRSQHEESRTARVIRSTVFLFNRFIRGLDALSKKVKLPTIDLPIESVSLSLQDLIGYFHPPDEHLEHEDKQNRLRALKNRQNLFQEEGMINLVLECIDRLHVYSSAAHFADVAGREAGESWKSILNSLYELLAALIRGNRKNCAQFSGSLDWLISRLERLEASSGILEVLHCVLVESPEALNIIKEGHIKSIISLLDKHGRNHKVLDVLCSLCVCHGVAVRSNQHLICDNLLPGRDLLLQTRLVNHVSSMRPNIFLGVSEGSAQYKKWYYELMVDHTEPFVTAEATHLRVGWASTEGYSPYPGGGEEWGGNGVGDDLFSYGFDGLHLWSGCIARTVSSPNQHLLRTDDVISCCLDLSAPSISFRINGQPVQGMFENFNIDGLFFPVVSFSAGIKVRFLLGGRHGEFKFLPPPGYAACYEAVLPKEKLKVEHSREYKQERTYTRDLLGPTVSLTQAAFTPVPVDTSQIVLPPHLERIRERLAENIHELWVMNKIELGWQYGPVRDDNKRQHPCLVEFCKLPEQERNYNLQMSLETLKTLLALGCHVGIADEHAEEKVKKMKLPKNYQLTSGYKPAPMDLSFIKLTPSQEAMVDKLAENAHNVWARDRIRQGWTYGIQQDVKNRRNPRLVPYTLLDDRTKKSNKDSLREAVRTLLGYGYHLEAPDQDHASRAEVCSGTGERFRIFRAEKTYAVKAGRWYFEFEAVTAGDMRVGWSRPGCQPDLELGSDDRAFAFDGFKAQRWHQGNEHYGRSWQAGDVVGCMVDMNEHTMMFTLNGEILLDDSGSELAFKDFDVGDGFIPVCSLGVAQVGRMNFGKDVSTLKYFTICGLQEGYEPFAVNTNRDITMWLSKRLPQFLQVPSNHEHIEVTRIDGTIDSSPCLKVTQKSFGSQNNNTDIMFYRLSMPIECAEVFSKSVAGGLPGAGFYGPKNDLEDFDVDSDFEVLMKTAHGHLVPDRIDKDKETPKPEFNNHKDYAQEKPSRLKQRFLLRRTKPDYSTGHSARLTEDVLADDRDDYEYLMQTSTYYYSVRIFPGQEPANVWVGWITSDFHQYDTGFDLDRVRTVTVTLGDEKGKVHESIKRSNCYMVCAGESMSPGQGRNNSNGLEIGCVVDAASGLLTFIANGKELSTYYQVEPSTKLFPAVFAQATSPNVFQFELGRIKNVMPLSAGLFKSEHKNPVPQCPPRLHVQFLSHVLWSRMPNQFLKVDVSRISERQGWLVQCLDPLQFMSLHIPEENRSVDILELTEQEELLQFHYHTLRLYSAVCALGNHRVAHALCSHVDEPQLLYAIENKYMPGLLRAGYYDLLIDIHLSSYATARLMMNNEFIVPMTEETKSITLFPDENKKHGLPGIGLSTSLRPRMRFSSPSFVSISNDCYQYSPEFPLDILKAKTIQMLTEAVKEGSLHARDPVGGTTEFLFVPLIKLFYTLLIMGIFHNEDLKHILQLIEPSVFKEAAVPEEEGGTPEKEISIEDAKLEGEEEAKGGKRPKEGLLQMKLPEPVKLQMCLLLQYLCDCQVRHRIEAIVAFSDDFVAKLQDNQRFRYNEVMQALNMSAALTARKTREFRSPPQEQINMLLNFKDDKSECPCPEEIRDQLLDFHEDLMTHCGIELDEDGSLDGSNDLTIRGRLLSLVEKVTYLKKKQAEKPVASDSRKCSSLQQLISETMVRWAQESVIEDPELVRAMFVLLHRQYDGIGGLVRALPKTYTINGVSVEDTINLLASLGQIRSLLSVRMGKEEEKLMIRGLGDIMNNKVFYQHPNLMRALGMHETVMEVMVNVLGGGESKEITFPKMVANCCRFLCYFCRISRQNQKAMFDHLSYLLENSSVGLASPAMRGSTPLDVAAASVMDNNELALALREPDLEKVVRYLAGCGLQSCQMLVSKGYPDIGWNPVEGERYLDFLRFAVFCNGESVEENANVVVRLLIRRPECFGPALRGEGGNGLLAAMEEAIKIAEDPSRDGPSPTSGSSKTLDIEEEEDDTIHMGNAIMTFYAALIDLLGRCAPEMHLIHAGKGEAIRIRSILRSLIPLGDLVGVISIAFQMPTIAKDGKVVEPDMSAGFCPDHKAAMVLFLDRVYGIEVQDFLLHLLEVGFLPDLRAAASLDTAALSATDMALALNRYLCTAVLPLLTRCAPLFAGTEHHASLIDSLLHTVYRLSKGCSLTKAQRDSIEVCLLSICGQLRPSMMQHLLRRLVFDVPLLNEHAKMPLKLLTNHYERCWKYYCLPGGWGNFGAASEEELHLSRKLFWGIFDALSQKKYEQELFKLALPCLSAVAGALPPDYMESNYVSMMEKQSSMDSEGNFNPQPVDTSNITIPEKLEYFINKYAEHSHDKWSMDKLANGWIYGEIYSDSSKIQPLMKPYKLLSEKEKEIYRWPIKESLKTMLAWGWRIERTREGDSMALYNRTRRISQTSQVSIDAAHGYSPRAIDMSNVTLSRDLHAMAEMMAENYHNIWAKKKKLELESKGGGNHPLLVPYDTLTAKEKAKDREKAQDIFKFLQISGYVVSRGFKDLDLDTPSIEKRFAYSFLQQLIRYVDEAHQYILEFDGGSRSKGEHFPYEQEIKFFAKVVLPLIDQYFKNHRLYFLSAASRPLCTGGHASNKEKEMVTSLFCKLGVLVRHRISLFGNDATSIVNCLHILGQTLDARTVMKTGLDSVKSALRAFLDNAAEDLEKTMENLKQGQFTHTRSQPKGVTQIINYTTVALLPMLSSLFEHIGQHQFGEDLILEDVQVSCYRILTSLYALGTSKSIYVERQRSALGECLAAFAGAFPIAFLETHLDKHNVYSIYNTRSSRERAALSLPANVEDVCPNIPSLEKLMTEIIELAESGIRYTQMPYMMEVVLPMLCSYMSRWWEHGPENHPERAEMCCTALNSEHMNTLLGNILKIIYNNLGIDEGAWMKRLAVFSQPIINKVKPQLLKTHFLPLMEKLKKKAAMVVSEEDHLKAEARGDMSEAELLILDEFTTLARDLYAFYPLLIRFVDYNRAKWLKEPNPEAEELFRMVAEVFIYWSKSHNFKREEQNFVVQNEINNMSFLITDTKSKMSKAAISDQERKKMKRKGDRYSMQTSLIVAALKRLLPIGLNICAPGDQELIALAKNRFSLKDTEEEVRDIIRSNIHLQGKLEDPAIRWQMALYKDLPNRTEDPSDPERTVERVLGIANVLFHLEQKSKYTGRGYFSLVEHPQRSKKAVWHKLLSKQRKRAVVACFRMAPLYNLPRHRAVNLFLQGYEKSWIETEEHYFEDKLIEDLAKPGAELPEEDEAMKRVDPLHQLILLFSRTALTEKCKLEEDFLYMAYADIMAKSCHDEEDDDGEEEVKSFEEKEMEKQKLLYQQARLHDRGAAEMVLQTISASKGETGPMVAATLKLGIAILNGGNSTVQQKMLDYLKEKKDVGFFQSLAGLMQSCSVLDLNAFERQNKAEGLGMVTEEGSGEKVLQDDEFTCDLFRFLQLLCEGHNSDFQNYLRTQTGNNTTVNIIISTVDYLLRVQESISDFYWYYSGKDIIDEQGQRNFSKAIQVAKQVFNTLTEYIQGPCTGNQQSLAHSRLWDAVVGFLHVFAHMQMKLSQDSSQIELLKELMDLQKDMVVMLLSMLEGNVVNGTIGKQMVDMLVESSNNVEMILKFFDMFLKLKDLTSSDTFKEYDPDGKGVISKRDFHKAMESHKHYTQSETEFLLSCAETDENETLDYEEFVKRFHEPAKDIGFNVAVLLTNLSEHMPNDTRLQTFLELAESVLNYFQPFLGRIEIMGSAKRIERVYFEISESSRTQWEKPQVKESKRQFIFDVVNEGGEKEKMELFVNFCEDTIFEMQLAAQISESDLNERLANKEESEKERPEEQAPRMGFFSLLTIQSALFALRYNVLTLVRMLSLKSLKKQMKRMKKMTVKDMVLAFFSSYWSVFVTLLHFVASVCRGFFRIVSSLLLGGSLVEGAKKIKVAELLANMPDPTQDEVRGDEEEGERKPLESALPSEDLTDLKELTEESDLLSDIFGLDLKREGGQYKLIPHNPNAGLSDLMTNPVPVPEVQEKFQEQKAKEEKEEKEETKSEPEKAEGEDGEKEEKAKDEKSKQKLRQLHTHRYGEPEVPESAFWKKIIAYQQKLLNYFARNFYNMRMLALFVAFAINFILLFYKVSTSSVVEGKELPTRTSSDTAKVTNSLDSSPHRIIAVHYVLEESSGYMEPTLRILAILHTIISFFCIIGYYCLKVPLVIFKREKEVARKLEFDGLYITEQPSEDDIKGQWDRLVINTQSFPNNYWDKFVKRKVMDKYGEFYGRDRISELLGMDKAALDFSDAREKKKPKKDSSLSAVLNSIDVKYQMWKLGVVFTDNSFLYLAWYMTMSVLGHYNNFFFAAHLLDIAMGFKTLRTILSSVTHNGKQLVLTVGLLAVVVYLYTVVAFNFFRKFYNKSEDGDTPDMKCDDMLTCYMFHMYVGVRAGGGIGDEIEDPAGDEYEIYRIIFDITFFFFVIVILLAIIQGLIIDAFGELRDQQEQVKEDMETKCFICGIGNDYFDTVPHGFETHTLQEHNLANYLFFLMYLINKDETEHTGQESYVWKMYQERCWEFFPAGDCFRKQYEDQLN

Regarding `COc1ccc2c(c1)CN(C(=O)C(=O)O)CCS2` [ARM036], in data set [1], the “abnormal behaviors in open field test (time center versus periphery) and EPM test (time open-arm versus closed-arm)” value was “no effect”. Further, in data set [2], the discrimination index was 15%±3%. Besides, in [3], the “latency to find and reach the hidden platform” value is 29 ± 3 s. Besides, the “LTP (hippocampal synaptic plasticity)” value in the data set on MI mice [4] is on record as “no effect”. In the data set with MI mice [5], the “hippocampal FDG metabolism” value is 80±8. In the data set with adrenergic pathway, the PKA activity entry is “no effect” and the brain norepinephrine entry is on record as “no effect”. Besides, in the data set with TGF-β pathway, the “NOX2 binding to hippocampal RyR2” value was “no effect”, the TGF-β levels result is given as “no effect” and the “phosphorylation of SMAD3” value was “no effect”. For the same compound, the “crossing of the blood-brain barrier (BBB)” value in [6] is listed as “does not cross the blood-brain barrier”.
For `COc1ccc2c(c1)CN(Cc1ccc(C(=O)O)cc1)CCS2` [Compound 1], on RyR2 [7], the “effect on primed state of leaky channels” value is recorded as “reverse the primed state of leaky channels toward a fully closed state”.
For `COc1ccc2c(c1)CN(C)CCS2` [S107], the target crossings in data set [3] (60-s probe trial day 5, MI 2.4±0.3, SHAM 4.6±0.3) was 4.2±0.3. The “time spent in the target quadrant” value in data set [3] (60-s probe trial day 5, MI 17±1 s, SHAM 25±2 s) was 26 ± 2 s. Further, in data set [3], the “latency to find and reach the hidden platform” value came out at 20 ± 2 s. Moreover, in the data set on MI mice [5], the “hippocampal FDG metabolism” value is recorded as 114±13. Besides, in the data set with adrenergic pathway, the PKA activity result was “no effect” and the brain norepinephrine result is “no effect”. In addition, the “crossing of the blood-brain barrier (BBB)” value in data set [6] is on record as “BBB-permeant”.
Turning to `CC(C)NCC(O)c1ccc(O)c(O)c1` (centres unmarked) [isoproterenol], the “caffeine-induced Ca2+ release” value at RyR2 [8] was “small Ca^2+ release”.

The record behind these values is patent US20250255882A1, “TREATMENT OF CARDIAC CONDITION RELATED COGNITIVE DYSFUNCTION” (The Trustees of Columbia University in the City of New York, priority 2024, published 2025).
